Experimental data from patent publication US20060069132A1, “Azolecarboxamide herbicides” (priority 2004, published 2006).

Tests used:
barnyardgrass [1] = test: Test B pre-/postemergence herbicide test; type: in vivo, Echinochloa crus-galli; details: for Barnyardgrass plant response rating: Postemergence, scale 0 (no effect) to 100 (complete control)
Outline: (§1)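 Species tested were Echinochloa crus-galli, Ipomoea coccinea, Xanthium strumarium and Oryza sativa, treated both before emergence and at the 1- to 4-leaf stage; rice and barnyardgrass were also tested under flooding at 2 leaves. Greenhouse incubation lasted 13–15 days before visual 0–100 scoring.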

Surinam grass = test: Test B pre-/postemergence herbicide test; type: in vivo, Urochloa decumbens
Outline: (§2)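 Response was scored visually 13 to 15 days after treatment against untreated greenhouse controls, 0 meaning no effect and 100 complete control. Formulations (solvent mixture plus surfactant) went onto soil after planting, onto foliage of 1- to 4-leaf plants, and onto 2-leaf plants in a flooded paddy set including rice and barnyardgrass.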

cocklebur = test: Test B pre-/postemergence herbicide test; type: in vivo, Xanthium strumarium
Outline: as §1

corn = test: Test B pre-/postemergence herbicide test; type: in vivo, Zea mays
Outline: as §2

large crabgrass = test: Test B pre-/postemergence herbicide test; type: in vivo, Digitaria sanguinalis
Outline: as §2

giant foxtail = test: Test B pre-/postemergence herbicide test; type: in vivo, Setaria faberi
Outline: as §2

lambsquarters = test: Test B pre-/postemergence herbicide test; type: in vivo, Chenopodium album
Outline: as §2

morningglory = test: Test B pre-/postemergence herbicide test; type: in vivo, Ipomoea coccinea
Outline: as §1

pigweed = test: Test B pre-/postemergence herbicide test; type: in vivo, Amaranthus retroflexus
Outline: as §2

velvetleaf = test: Test B pre-/postemergence herbicide test; type: in vivo, Abutilon theophrasti
Outline: as §2

blackgrass = test: Test B postemergence herbicide test; type: in vivo, Alopecurus myosuroides
Outline: (§3)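 Plants grow to 1- to 4-leaf stage (2–18 cm) for postemergence spraying, or to 2-leaf stage for the paddy test. Formulated compound is applied. Greenhouse holding lasts 13–15 days. Response is scored visually relative to controls, 0 no effect to 100 complete control; a dash means no result.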

wheat = test: Test B postemergence herbicide test; type: in vivo, Triticum aestivum; parameters: key to Wheat plant response rating: 0 = no effect, 100 = complete control
Outline: as §3

wild oat = test: Test B postemergence herbicide test; type: in vivo, Avena fatua
Outline: as §3

rice = test: Test B flooded paddy test; type: in vivo, Oryza sativa; details: 125 g ai/ha, scale 0 to 100 (0 no effect, 100 complete control)
Outline: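 Postemergence plants were sprayed with formulated test chemicals at 2 to 18 cm height (1- to 4-leaf stage); paddy species were grown to the 2-leaf stage. After 13 to 15 days in a greenhouse, injury was rated visually against untreated controls on a 0–100 scale (0 = no effect, 100 = complete control).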

[2] = tested on: small flower umbrella sedge; test: Test B flooded paddy test; type: in vivo, Cyperus difformis; details: 125 g ai/ha, scale 0 to 100 (0 no effect, 100 complete control)
Outline: as §3

ducksalad = test: Test B flooded paddy test; type: in vivo, Heteranthera limosa; details: 125 g ai/ha, scale 0 to 100 (0 no effect, 100 complete control)
Outline: as §3

barnyardgrass [3] = test: Test B flooded paddy test; type: in vivo, Echinochloa crus-galli; details: 125 g ai/ha, scale 0 to 100 (0 no effect, 100 complete control)
Outline: as §3

[4] = 125 g ai/ha, 0 is no effect, 100 is complete control, preemergence
[5] = Postemergence, 500 g ai/ha, scale 0 (no effect) to 100 (complete control)
[6] = postemergence, 125 g ai/ha, scale 0 to 100
[7] = 500 g ai/ha, scale 0 to 100, 0 no effect, 100 complete control, preemergence

## CCOC(=O)c1cccc(NC(=O)c2nn(C(C)(C)C)nc2Br)c1 [Compound 432]
Barnyardgrass [1]; [4]
  Plant response rating (0 to 100 scale), Barnyardgrass: 10
Barnyardgrass [1]; 125 g ai/ha
  Barnyardgrass plant response rating: 20
Barnyardgrass [1]; 500 g ai/ha
  Barnyardgrass plant response rating: 60
Surinam grass; [4]
  Plant response rating (0 to 100 scale), Surinam Grass: 10
Surinam grass; [5]
  Surinam Grass plant response rating: 70
Surinam grass; [6]
  Surinam Grass plant response rating: 10
cocklebur; [4]
  Plant response rating (0 to 100 scale), Cocklebur: 0
cocklebur; [5]
  Cocklebur plant response rating: 70
cocklebur; [6]
  Cocklebur plant response rating: 40
corn; [4]
  Plant response rating (0 to 100 scale), Corn: 0
corn; [5]
  Corn plant response rating: 30
corn; [6]
  Corn plant response rating: 30
Large crabgrass; [4]
  Plant response rating (0 to 100 scale), Crabgrass, Large: 30
Large crabgrass; [5]
  Crabgrass, Large plant response rating: 30
Large crabgrass; [6]
  Crabgrass, Large plant response rating: 10
Giant foxtail; [4]
  Plant response rating (0 to 100 scale), Foxtail, Giant: 40
Giant foxtail; [5]
  Foxtail, Giant plant response rating: 40
Giant foxtail; [6]
  Foxtail, Giant plant response rating: 0
lambsquarters; [4]
  Plant response rating (0 to 100 scale), Lambsquarters: 0
lambsquarters; [5]
  Lambsquarters plant response rating: 30
lambsquarters; [6]
  Lambsquarters plant response rating: 0
morningglory; [4]
  Plant response rating (0 to 100 scale), Morningglory: 0
morningglory; [5]
  Morningglory plant response rating: 30
morningglory; [6]
  Morningglory plant response rating: 20
pigweed; [4]
  Plant response rating (0 to 100 scale), Pigweed: 0
pigweed; [5]
  Pigweed plant response rating: 10
pigweed; [6]
  Pigweed plant response rating: 0
velvetleaf; [4]
  Plant response rating (0 to 100 scale), Velvetleaf: 0
velvetleaf; [5]
  Velvetleaf plant response rating: 60
velvetleaf; [6]
  Velvetleaf plant response rating: 50
blackgrass; [5]
  Blackgrass plant response rating: 40
blackgrass; [6]
  Blackgrass plant response rating: 40
wheat; [7]
  Wheat plant response rating: 0
wheat; [5]
  Wheat plant response rating: 60
wheat; [6]
  Wheat plant response rating: 50
Wild oat; [5]
  Oat, Wild plant response rating: 60
Wild oat; [6]
  Oat, Wild plant response rating: 50
rice
  Rice plant response rating: 0
[2]
  Sedge, Umbrella plant response rating: 80
ducksalad
  Ducksalad plant response rating: 30
Barnyardgrass [3]
  Barnyardgrass plant response rating: 30

## CCNC(=O)c1cccc(NC(=O)c2nn(C(C)(C)C)nc2Br)c1 [Compound 434]
Barnyardgrass [1]; 125 g ai/ha
  Barnyardgrass plant response rating: 10
Barnyardgrass [1]; 500 g ai/ha
  Barnyardgrass plant response rating: 30
Surinam grass; [5]
  Surinam Grass plant response rating: 20
Surinam grass; [6]
  Surinam Grass plant response rating: 10
cocklebur; [5]
  Cocklebur plant response rating: 70
cocklebur; [6]
  Cocklebur plant response rating: 50
corn; [5]
  Corn plant response rating: 40
corn; [6]
  Corn plant response rating: 40
Large crabgrass; [5]
  Crabgrass, Large plant response rating: 30
Large crabgrass; [6]
  Crabgrass, Large plant response rating: 20
Giant foxtail; [5]
  Foxtail, Giant plant response rating: 30
Giant foxtail; [6]
  Foxtail, Giant plant response rating: 20
lambsquarters; [5]
  Lambsquarters plant response rating: 70
lambsquarters; [6]
  Lambsquarters plant response rating: 40
morningglory; [5]
  Morningglory plant response rating: 70
morningglory; [6]
  Morningglory plant response rating: 60
pigweed; [5]
  Pigweed plant response rating: 60
pigweed; [6]
  Pigweed plant response rating: 40
velvetleaf; [5]
  Velvetleaf plant response rating: 20
velvetleaf; [6]
  Velvetleaf plant response rating: 10
blackgrass; [5]
  Blackgrass plant response rating: 50
blackgrass; [6]
  Blackgrass plant response rating: 30
wheat; [7]
  Wheat plant response rating: 90
wheat; [5]
  Wheat plant response rating: 50
wheat; [6]
  Wheat plant response rating: 40
Wild oat; [5]
  Oat, Wild plant response rating: 60
Wild oat; [6]
  Oat, Wild plant response rating: 50
rice
  Rice plant response rating: 70
[2]
  Sedge, Umbrella plant response rating: 90
ducksalad
  Ducksalad plant response rating: 70
Barnyardgrass [3]
  Barnyardgrass plant response rating: 60

## CC(C)(C)n1nc(Br)c(C(=O)Nc2cccc(C(=O)NC3CC3)c2)n1 [Compound 435]
Barnyardgrass [1]; 125 g ai/ha
  Barnyardgrass plant response rating: 10
Barnyardgrass [1]; 500 g ai/ha
  Barnyardgrass plant response rating: 10
Surinam grass; [5]
  Surinam Grass plant response rating: 30
Surinam grass; [6]
  Surinam Grass plant response rating: 20
cocklebur; [5]
  Cocklebur plant response rating: 20
cocklebur; [6]
  Cocklebur plant response rating: 20
corn; [5]
  Corn plant response rating: 30
corn; [6]
  Corn plant response rating: 20
Large crabgrass; [5]
  Crabgrass, Large plant response rating: 30
Large crabgrass; [6]
  Crabgrass, Large plant response rating: 10
Giant foxtail; [5]
  Foxtail, Giant plant response rating: 30
Giant foxtail; [6]
  Foxtail, Giant plant response rating: 20
lambsquarters; [5]
  Lambsquarters plant response rating: 60
lambsquarters; [6]
  Lambsquarters plant response rating: 50
morningglory; [5]
  Morningglory plant response rating: 90
morningglory; [6]
  Morningglory plant response rating: 70
pigweed; [5]
  Pigweed plant response rating: 60
pigweed; [6]
  Pigweed plant response rating: 40
velvetleaf; [5]
  Velvetleaf plant response rating: 20
velvetleaf; [6]
  Velvetleaf plant response rating: 10
blackgrass; [5]
  Blackgrass plant response rating: 30
blackgrass; [6]
  Blackgrass plant response rating: 20
wheat; [7]
  Wheat plant response rating: 10
wheat; [5]
  Wheat plant response rating: 60
wheat; [6]
  Wheat plant response rating: 20
Wild oat; [5]
  Oat, Wild plant response rating: 60
Wild oat; [6]
  Oat, Wild plant response rating: 50
rice
  Rice plant response rating: 0
[2]
  Sedge, Umbrella plant response rating: 0
ducksalad
  Ducksalad plant response rating: 0
Barnyardgrass [3]
  Barnyardgrass plant response rating: 0
